IC50 data for 18 compounds are collected here from US12018021B2 (UCB Biopharma SRL, priority 2018, dated 2024).

The target of the experiment is IgE-Tb / sFcεRIα-Y131A-AF488 (Homo sapiens, UniProt P01854, N146Q/N252Q). Briefly: IgE-Tb / sFcεRIα-Y131A-AF488 FRET assay (protocol for examples 234 to 501). Type of experiment: binding. The note with it: examples 234 to 501: compound with IgE-Tb 30 minutes before sFcεRIα-Y131A-AF488, incubated 18 hours at room temperature; read-out: Y131A FRET IC50 range. As to the method: For examples 234 to 501, the assay was conducted according to the following: Each assay reaction was conducted in a volume of 25 μl in a 384-well half-volume plate. 10 point compound serial dilutions (3-fold) were generated in DMSO at a concentration of ×50 that of the final assay concentration (FAC). Compound solutions were then prepared by diluting 10-fold in assay buffer. For the assay, 5l of diluted compound was added to 10 μl of IgE-Tb and incubated for 30 minutes before the addition of 10 μ[…]. FRET reagents FACs were 5 nM IgE-Tb, 25 nM […]. Usually the top FAC of compound in the assay was 10 μM. The final DMSO concentration was 2%. […] The maximum FRET signal (MAX) was measured in wells containing FRET reagents but no compound. The assay was incubated for 18 hours at room temperature, protected from light and evaporation, and with gentle agitation. Measurement of FRET for each well was carried out by exciting at 337 nm and measuring emission at 490/520 nm using a PHERAstar FSX plate reader (BMG Labtech). FRET ratio was calculated as follows: Emission at 520/7Emission at 490×1000. The FRET ratio was used for the data analysis. […] Z' above 0.5 was considered a good assay. Background signal (MIN) was subtracted from all wells. […] Percent inhibition was plotted against compound concentration. IC50 values for each compound were determined using four parameter logistic fit model using the XLFIT5 software package.
Sequence of IgE-Tb / sFcεRIα-Y131A-AF488 (P01854 whole entry N146Q/N252Q): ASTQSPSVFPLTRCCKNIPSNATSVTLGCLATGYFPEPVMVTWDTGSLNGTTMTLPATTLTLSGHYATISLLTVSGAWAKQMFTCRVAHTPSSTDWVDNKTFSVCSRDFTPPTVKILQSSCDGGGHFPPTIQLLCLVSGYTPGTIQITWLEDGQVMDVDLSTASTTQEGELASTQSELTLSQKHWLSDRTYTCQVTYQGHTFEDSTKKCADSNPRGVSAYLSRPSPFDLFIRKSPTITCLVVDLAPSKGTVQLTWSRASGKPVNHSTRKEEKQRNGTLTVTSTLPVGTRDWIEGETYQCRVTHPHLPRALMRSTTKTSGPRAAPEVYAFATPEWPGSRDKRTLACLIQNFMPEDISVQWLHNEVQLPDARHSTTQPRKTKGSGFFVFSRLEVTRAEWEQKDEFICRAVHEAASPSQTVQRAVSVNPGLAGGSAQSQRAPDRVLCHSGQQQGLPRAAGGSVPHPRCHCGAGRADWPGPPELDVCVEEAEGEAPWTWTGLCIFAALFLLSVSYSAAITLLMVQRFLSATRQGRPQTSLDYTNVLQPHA

In the case of `Cn1nc(OC(F)F)cc1Nc1nncn1[C@H]1CCc2sc(NC(=O)C3CC3)c(C(=O)NC[C@H]3C[C@H]3F)c2C1` (mixture of isomers) [Example 454, (5S)-2-(cyclopropanecarbonylamino)-5-[3-[[5-(difluoromethoxy)-2-methylpyrazol-3-yl]amino]-1,2,4-triazol-4-yl]-N-[[(1RS,2RS)-2-fluorocyclopropyl]methyl]-4,5,6,7-tetrahydro-1-benzothiophene-3-carboxamide], the IC50 (as a rule, the concentration that gives 50% inhibition) is < 1 µM. With `Cn1nc(OC(F)F)cc1Nc1nncn1[C@H]1CCc2sc(NC(=O)C3CC3)c(C(=O)NCC3CC3(F)F)c2C1` (mixture of isomers) [Example 458, (5S)-2-(cyclopropanecarbonylamino)-N-[(2,2-difluorocyclopropyl)methyl]-5-[3-[[5-(difluoromethoxy)-2-methylpyrazol-3-yl]amino]-1,2,4-triazol-4-yl]-4,5,6,7-tetrahydro-1-benzothiophene-3-carboxamide], the IC50 is < 1 µM.

For `Cn1nc(C(F)F)cc1Nc1nncn1[C@H]1CCc2sc(NC(=O)C3CC3(F)F)c(C(=O)N[C@H]3C[C@H](F)C3)c2C1` (mixture of isomers) [Example 493, (5S)-2-[(2,2-difluorocyclopropanecarbonyl)amino]-5-[3-[[5-(difluoromethyl)-2-methyl-pyrazol-3-yl]amino]-1,2,4-triazol-4-yl]-N-(trans-3-fluorocyclobutyl)-4,5,6,7-tetrahydrobenzothiophene-3-carboxamide], the IC50 is < 1 µM.

For the compound `Cn1nc(C(F)F)cc1Nc1nncn1[C@H]1CCc2sc(NC(=O)C3CC3)c(C(=O)NC3CC34CC4)c2C1` (mixture of isomers) [Example 494, (5S)-2-cyclopropaneamido-5-(3-{[3-(difluoromethyl)-1-methyl-1H-pyrazol-5-yl]amino}-4H-1,2,4-triazol-4-yl)-N-{spiro[2.2]pentan-1-yl}-4,5,6,7-tetrahydro-1-benzothiophene-3-carboxamide], the IC50 is < 1 µM. Under `Cn1nc(C(F)F)cc1Nc1nncn1[C@H]1CCc2sc(NC(=O)[C@@H]3C[C@H]3F)c(C(=O)NCC3CC3)c2C1` (racemic) [Example 366, (5S)—N-(cyclopropylmethyl)-5-[3-[[5-(difluoromethyl)-2-methylpyrazol-3-yl]amino]-1,2,4-triazol-4-yl]-2-[[(1RS,2SR)-2-fluorocyclopropanecarbonyl]amino]-4,5,6,7-tetrahydro-1-benzothiophene-3-carboxamide] stands < 1 µM; under `C[C@H]1c2c(sc(NC(=O)C3CC3)c2C(=O)NCC2CC2)CC[C@@H]1n1cnnc1Nc1cc(C(F)(F)F)nn1C` (racemic) [Example 421, (4RS,5RS)-2-(cyclopropanecarbonylamino)-N-(cyclopropylmethyl)-4-methyl-5-[3-[[2-methyl-5-(trifluoromethyl)pyrazol-3-yl]amino]-1,2,4-triazol-4-yl]-4,5,6,7-tetrahydrobenzothiophene-3-carboxamide], < 1 µM.

As for `Cn1nc(C(F)F)cc1Nc1nncn1[C@H]1CCc2sc(NC(=O)C3CC3)c(C(=O)NC[C@H]3C[C@H](F)C3)c2C1` (racemic) [Example 497, (5S)-2-(cyclopropanecarbonylamino)-5-[3-[[5-(difluoromethyl)-2-methyl-pyrazol-3-yl]amino]-1,2,4-triazol-4-yl]-N-[(3-fluorocyclobutyl)methyl]-4,5,6,7-tetrahydrobenzothiophene-3-carboxamide], the IC50 was < 1 µM. Turning to `C[C@H]1CCCN1C(=O)c1ncn([C@H]2CCc3sc(NC(=O)[C@H]4C[C@H]4F)c(C(=O)NCC4CC4)c3C2)c1N` (relative stereo) [Example 259, (5S)-5-[5-amino-4-[(2S)-2-methylpyrrolidine-1-carbonyl]imidazol-1-yl]-N-(cyclopropylmethyl)-2-[[(1R*,2R*)-2-fluorocyclopropanecarbonyl]amino]-4,5,6,7-tetrahydrobenzothiophene-3-carboxamide], the IC50 is < 1 µM. Regarding `Cn1nc(C(F)F)cc1Nc1nncn1[C@H]1CCc2sc(NC(=O)[C@@H]3CC3(F)F)c(C(=O)NC[C@@H]3C[C@@H]3F)c2C1` (relative stereo) [Example 284, (5S)-2-[[(1S*)-2,2-difluorocyclopropanecarbonyl]amino]-5-[3-[[5-(difluoromethyl)-2-methyl-pyrazol-3-yl]amino]-1,2,4-triazol-4-yl]-N-[[(1S,2S)-2-fluorocyclopropyl]methyl]-4,5,6,7-tetrahydrobenzothiophene-3-carboxamide [* or R]], the IC50 is < 1 µM. For `O=C(NCC1CC1)c1c(NC(=O)C2CC2)sc2c1C[C@@H](n1cnnc1N[C@H]1CN(C(=O)c3ccccc3)CC1(F)F)CC2` (relative stereo) [Example 285, (5S)-5-[3-[[(3S*)-1-benzoyl-4,4-difluoro-pyrrolidin-3-yl]amino]-1,2,4-triazol-4-yl]-2-(cyclopropanecarbonylamino)-N-(cyclopropylmethyl)-4,5,6,7-tetrahydrobenzothiophene-3-carboxamide [* or R]], the IC50 was < 1 µM. As for `Cn1nc(C(F)F)cc1Nc1nncn1[C@H]1CCc2sc(NC(=O)[C@@H]3CC34CC4)c(C(=O)NCC3CC3)c2C1` (relative stereo) [Example 311, (5S)—N-(cyclopropylmethyl)-5-[3-[[5-(difluoromethyl)-2-methyl-pyrazol-3-yl]amino]-1,2,4-triazol-4-yl]-2-[[(2R*)-spiro[2.2]pentane-2-carbonyl]amino]-4,5,6,7-tetrahydrobenzothiophene-3-carboxamide [* or S]], the IC50 was < 1 µM.

As to `Cn1nc(OC(F)F)cc1Nc1nncn1[C@H]1CCc2sc(NC(=O)[C@H]3CC3(F)F)c(C(=O)NCC3CC3)c2C1` (relative stereo) [Example 345, (5S)—N-(cyclopropylmethyl)-2-[[(1R*)-2,2-difluorocyclopropanecarbonyl]amino]-5-[3-[[5-(difluoromethoxy)-2-methylpyrazol-3-yl]amino]-1,2,4-triazol-4-yl]-4,5,6,7-tetrahydro-1-benzothiophene-3-carboxamide (* or S)], the IC50 is < 1 µM.

Take `Cn1nc(C(F)F)cc1Nc1nncn1[C@H]1CCc2sc(NC(=O)[C@@H]3CC3(F)F)c(C(=O)NCC3CC3)c2C1` (relative stereo) [Example 365, (5S)—N-(cyclopropylmethyl)-2-[[(1R*)-2,2-difluorocyclopropanecarbonyl]amino]-5-[3-[[5-(difluoromethyl)-2-methylpyrazol-3-yl]amino]-1,2,4-triazol-4-yl]-4,5,6,7-tetrahydro-1-benzothiophene-3-carboxamide (* or S)]: the IC50 is < 1 µM. In the case of `C[C@@H]1C[C@H]1C(=O)Nc1sc2c(c1C(=O)NCC1CC1)C[C@@H](n1cnnc1Nc1cc(C(F)F)nn1C)CC2` (relative stereo) [Example 370, (5S)—N-(cyclopropylmethyl)-5-[3-[[5-(difluoromethyl)-2-methylpyrazol-3-yl]amino]-1,2,4-triazol-4-yl]-2-[[(1R*,2R*)-2-methylcyclopropanecarbonyl]amino]-4,5,6,7-tetrahydro-1-benzothiophene-3-carboxamide (* or S)], the IC50 is < 1 µM. In the case of `C[C@H]1C[C@H]1C(=O)Nc1sc2c(c1C(=O)NCC1CC1)C[C@@H](n1cnnc1Nc1cc(C(F)F)nn1C)CC2` (relative stereo) [Example 371, (5S)—N-(cyclopropylmethyl)-5-[3-[[5-(difluoromethyl)-2-methylpyrazol-3-yl]amino]-1,2,4-triazol-4-yl]-2-[[(1R*,2S*)-2-methylcyclopropanecarbonyl]amino]-4,5,6,7-tetrahydro-1-benzothiophene-3-carboxamide (*1R,2S or 1S,2R)] it was < 1 µM.

Regarding `Cn1nc(C(F)F)cc1Nc1nncn1[C@H]1CCc2sc(NC(=O)C3CC3)c(C(=O)NC[C@@H]3CC3(C)C)c2C1` (relative stereo) [Example 372, (5S)-2-(cyclopropanecarbonylamino)-5-[3-[[5-(difluoromethyl)-2-methylpyrazol-3-yl]amino]-1,2,4-triazol-4-yl]-N-[[(1R*)-2,2-dimethylcyclopropyl]methyl]-4,5,6,7-tetrahydro-1-benzothiophene-3-carboxamide (* or S)], the IC50 was < 1 µM. In the case of `Cn1nc(OC(F)F)cc1Nc1nncn1[C@H]1CCc2sc(NC(=O)[C@H]3C[C@@H]3F)c(C(=O)N[C@H]3CC34CC4)c2C1` (relative stereo) [Example 376, (5S)-5-[3-[[5-(difluoromethoxy)-2-methylpyrazol-3-yl]amino]-1,2,4-triazol-4-yl]-2-[[(1R,2S)-2-fluorocyclopropanecarbonyl]amino]-N-[(2R*)-spiro[2.2]pentan-2-yl]-4,5,6,7-tetrahydro-1-benzothiophene-3-carboxamide (* or S)] it was < 1 µM. Regarding `COc1cc(Nc2nncn2[C@H]2CCc3sc(NC(=O)[C@@H]4CC45CC5)c(C(=O)NCC4CC4)c3C2)n(C)n1` (relative stereo) [Example 455, (5S)—N-(cyclopropylmethyl)-5-[3-[(5-methoxy-2-methyl-pyrazol-3-yl)amino]-1,2,4-triazo-4-yl]-2-[[(2R*)-spiro[2.2]pentane-2-carbonyl]amino]-4,5,6,7-tetrahydrobenzothiophene-3-carboxamide (* or S)], the IC50 was < 1 µM.
